How the values were obtained:
Endothelin-1 receptor = molecular target: T1, Endothelin-1 receptor (Homo sapiens, UniProt P25101)
T1 sequence (P25101 whole entry): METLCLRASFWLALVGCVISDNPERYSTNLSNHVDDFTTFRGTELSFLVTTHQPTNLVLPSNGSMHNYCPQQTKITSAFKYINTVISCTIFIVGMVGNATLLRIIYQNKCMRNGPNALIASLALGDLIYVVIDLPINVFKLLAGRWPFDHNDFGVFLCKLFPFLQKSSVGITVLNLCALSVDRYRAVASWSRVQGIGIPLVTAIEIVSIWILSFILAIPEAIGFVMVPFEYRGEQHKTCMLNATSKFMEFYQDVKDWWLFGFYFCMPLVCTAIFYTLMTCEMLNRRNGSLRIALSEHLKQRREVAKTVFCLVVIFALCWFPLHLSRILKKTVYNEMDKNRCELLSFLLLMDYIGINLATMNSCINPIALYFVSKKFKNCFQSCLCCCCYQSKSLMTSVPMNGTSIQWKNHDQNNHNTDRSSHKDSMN

Glucocorticoid receptor = molecular target: T2, Glucocorticoid receptor (Homo sapiens, UniProt P04150)
T2 sequence (P04150 whole entry): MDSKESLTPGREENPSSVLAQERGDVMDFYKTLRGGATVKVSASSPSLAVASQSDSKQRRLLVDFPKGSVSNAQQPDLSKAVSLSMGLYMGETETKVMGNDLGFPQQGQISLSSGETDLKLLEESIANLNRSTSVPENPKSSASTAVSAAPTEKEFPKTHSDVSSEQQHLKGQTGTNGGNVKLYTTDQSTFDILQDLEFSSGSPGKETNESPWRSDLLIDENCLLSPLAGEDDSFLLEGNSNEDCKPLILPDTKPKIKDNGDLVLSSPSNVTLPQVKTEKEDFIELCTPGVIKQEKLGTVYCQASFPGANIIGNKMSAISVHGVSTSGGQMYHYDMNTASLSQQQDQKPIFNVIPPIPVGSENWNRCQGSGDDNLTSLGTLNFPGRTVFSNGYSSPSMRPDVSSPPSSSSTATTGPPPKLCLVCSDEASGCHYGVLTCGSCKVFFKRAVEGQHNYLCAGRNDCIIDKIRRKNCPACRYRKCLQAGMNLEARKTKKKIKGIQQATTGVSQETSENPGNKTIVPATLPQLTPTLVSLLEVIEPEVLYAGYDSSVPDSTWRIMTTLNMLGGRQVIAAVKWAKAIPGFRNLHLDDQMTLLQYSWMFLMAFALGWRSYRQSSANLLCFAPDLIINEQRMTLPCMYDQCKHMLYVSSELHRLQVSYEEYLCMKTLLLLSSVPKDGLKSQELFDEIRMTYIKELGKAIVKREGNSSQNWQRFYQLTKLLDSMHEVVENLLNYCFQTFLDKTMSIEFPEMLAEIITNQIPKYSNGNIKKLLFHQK

[1] = molecular target: cGMP-inhibited 3',5'-cyclic phosphodiesterase 3A (Homo sapiens, UniProt Q14432); assay type: functional
cGMP-inhibited 3',5'-cyclic phosphodiesterase 3A, sequence (Q14432 whole entry): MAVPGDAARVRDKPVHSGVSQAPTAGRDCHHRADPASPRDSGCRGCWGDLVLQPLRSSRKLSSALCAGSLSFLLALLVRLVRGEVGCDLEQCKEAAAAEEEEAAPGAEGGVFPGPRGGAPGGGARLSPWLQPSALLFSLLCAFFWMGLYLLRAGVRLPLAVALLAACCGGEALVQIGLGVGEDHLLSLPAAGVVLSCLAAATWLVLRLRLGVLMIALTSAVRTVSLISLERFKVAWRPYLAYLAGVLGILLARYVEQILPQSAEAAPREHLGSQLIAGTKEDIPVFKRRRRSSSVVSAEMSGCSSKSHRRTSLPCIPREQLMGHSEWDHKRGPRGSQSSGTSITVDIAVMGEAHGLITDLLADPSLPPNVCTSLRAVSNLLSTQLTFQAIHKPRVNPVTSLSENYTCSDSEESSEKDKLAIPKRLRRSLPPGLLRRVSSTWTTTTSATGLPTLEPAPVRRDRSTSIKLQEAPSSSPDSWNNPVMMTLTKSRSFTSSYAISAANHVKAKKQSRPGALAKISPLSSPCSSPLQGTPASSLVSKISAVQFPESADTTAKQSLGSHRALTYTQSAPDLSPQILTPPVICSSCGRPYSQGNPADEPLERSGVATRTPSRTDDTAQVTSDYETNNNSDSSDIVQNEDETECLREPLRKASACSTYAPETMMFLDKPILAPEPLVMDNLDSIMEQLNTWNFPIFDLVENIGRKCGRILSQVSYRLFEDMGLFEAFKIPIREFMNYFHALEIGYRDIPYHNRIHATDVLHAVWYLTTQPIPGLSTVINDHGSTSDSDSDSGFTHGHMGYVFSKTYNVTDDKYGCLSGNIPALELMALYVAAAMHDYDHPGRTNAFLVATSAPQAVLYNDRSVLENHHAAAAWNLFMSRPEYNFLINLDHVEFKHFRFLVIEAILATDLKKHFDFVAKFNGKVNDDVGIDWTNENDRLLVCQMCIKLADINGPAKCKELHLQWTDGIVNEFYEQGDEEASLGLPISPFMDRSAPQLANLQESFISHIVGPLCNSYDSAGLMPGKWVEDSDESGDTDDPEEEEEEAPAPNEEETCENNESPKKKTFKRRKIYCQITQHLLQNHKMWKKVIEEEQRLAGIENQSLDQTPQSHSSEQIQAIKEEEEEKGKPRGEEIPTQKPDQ

[2] = molecular target: Voltage-dependent L-type calcium channel subunit alpha-1C (Rattus norvegicus, UniProt P22002); assay type: functional
Voltage-dependent L-type calcium channel subunit alpha-1C, sequence (P22002 whole entry): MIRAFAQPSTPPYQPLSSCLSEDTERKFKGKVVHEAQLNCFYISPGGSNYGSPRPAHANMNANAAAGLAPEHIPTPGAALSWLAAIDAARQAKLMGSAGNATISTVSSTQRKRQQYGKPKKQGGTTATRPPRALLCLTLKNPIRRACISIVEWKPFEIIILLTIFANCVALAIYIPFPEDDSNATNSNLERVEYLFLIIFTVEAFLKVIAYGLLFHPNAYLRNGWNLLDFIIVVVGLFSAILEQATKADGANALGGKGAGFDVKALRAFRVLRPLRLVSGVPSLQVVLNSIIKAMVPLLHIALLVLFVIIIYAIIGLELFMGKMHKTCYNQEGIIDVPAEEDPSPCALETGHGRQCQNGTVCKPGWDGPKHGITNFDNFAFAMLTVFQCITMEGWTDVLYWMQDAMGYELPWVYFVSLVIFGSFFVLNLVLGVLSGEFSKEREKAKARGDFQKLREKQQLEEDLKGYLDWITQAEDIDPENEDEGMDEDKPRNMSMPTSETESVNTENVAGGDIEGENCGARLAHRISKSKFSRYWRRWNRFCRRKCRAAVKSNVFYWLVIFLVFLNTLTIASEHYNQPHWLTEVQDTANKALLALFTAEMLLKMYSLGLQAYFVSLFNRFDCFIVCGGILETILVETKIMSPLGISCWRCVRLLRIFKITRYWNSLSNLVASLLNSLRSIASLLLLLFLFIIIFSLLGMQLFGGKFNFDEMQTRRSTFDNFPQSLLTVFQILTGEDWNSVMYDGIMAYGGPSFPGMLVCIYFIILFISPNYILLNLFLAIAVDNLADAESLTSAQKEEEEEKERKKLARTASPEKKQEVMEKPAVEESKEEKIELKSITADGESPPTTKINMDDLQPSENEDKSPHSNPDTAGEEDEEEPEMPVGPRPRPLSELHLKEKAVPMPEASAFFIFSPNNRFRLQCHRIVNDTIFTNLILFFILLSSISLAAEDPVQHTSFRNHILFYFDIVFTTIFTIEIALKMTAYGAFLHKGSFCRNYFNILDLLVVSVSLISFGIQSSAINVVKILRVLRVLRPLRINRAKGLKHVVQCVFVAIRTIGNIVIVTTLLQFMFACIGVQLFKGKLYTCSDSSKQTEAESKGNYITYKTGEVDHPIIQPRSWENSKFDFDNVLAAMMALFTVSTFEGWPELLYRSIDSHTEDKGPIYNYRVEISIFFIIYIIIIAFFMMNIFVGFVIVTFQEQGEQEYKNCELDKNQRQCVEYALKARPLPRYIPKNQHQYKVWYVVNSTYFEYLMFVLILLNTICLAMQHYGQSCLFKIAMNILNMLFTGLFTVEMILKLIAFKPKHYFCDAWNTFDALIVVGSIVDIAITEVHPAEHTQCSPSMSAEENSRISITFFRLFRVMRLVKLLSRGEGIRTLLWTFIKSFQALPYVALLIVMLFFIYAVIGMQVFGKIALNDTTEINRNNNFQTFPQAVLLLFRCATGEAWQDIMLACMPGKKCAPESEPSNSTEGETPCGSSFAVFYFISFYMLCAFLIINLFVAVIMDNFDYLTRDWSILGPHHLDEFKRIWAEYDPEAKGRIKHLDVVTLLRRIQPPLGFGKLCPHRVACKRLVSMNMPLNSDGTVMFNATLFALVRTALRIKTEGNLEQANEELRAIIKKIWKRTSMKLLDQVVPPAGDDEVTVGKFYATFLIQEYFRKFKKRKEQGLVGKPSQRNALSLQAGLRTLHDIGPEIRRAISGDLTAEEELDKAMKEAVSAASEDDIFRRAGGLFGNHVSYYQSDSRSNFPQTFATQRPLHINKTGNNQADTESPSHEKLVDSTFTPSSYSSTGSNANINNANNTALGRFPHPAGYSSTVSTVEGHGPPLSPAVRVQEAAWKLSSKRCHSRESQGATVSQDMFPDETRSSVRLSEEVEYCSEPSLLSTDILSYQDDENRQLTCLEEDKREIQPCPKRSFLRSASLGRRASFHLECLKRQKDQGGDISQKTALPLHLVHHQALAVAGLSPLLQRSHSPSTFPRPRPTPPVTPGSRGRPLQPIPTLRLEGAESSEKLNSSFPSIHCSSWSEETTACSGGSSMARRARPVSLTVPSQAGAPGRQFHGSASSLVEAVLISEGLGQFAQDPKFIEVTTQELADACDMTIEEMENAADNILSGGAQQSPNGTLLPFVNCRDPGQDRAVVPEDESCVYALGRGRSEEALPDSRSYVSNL

[3] = molecular target: Beta-2 adrenergic receptor (Homo sapiens, UniProt P07550)
Beta-2 adrenergic receptor, sequence (P07550 whole entry): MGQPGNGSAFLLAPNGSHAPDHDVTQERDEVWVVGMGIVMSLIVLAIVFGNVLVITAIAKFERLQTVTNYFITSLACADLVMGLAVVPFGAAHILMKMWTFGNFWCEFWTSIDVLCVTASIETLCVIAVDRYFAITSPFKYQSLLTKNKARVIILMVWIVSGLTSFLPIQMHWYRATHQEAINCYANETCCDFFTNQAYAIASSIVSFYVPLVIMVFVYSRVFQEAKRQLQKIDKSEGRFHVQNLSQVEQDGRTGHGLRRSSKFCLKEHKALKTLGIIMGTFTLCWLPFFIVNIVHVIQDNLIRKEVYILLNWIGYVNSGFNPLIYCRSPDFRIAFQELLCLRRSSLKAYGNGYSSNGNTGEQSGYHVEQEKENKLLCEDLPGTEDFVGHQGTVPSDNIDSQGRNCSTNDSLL

[4] = molecular target: 5-hydroxytryptamine receptor 2A (Homo sapiens, UniProt P28223); assay type: functional, cell-based
[5] = molecular target: Kappa-type opioid receptor (Homo sapiens, UniProt P41145)
Kappa-type opioid receptor, sequence (P41145 whole entry): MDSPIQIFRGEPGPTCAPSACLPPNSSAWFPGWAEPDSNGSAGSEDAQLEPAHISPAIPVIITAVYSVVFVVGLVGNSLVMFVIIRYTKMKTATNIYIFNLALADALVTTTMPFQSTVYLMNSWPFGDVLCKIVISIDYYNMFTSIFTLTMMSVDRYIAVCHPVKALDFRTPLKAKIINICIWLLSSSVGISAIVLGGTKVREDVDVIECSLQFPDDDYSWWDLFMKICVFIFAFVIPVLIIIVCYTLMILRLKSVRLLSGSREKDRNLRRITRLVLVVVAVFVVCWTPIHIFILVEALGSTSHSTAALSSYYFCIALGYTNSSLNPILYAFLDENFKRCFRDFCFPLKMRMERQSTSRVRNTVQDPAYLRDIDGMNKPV

[6] = molecular target: T3, Alpha-2A adrenergic receptor (Homo sapiens, UniProt P08913); assay type: functional, cell-based
T3 sequence (P08913 whole entry): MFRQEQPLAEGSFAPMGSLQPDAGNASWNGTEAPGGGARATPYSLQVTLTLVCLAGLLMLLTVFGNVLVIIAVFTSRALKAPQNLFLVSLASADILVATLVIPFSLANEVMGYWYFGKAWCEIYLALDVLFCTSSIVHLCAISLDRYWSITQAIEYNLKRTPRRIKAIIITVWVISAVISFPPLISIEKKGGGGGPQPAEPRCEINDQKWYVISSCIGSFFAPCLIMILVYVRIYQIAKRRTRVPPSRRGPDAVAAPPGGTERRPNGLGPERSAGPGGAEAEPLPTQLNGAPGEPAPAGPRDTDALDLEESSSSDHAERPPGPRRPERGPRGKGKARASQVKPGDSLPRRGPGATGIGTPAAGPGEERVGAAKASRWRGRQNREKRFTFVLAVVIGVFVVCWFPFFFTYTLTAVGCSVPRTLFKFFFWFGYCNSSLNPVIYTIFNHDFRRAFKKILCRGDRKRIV

Melanocortin receptor 3 = Melanocortin receptor 3 (Homo sapiens, UniProt P41968)
Melanocortin receptor 3, sequence (P41968 whole entry): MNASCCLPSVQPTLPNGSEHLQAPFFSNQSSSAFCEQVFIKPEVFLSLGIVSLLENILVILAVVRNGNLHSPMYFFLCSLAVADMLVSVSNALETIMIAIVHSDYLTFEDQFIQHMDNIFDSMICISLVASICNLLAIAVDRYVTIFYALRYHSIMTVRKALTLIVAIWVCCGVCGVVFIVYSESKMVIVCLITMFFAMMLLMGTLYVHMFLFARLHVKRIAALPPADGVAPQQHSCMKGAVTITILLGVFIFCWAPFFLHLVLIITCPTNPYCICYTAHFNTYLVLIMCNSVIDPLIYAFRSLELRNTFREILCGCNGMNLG

[7] = molecular target: Muscarinic acetylcholine receptor M3 (Homo sapiens, UniProt P20309)
Muscarinic acetylcholine receptor M3, sequence (P20309 whole entry): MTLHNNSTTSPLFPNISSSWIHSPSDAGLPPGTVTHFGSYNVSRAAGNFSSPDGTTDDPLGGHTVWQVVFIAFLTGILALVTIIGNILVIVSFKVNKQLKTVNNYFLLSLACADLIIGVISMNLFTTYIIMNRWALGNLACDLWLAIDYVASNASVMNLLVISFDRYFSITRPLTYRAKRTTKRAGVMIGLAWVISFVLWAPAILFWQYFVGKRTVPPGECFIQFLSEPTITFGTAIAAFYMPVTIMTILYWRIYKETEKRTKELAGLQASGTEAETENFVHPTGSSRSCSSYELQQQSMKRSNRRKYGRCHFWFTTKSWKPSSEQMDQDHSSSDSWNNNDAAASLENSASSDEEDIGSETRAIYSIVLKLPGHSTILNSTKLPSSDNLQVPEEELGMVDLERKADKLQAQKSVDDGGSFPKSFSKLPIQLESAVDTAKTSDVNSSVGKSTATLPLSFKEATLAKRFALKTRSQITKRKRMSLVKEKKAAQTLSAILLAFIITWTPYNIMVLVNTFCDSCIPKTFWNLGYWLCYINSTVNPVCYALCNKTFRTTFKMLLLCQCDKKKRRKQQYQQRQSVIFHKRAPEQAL

[8] = molecular target: Neuronal acetylcholine receptor subunit alpha-4 (Homo sapiens, UniProt P43681)
[9] = molecular target: T4, Type-1 angiotensin II receptor (Homo sapiens, UniProt P30556)
T4 sequence (P30556 whole entry): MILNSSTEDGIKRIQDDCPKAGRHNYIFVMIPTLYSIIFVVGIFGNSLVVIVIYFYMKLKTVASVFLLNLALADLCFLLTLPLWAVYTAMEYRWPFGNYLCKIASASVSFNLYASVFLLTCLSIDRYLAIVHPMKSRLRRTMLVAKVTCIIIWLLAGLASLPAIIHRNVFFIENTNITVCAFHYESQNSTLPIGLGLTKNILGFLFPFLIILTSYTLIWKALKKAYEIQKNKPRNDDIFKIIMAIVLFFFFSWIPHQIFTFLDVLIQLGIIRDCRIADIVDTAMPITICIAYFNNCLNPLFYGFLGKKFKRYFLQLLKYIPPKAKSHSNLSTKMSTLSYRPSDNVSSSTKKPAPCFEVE

[10] = molecular target: T5, Alpha-2B adrenergic receptor (Homo sapiens, UniProt P18089)
T5 sequence (P18089 whole entry): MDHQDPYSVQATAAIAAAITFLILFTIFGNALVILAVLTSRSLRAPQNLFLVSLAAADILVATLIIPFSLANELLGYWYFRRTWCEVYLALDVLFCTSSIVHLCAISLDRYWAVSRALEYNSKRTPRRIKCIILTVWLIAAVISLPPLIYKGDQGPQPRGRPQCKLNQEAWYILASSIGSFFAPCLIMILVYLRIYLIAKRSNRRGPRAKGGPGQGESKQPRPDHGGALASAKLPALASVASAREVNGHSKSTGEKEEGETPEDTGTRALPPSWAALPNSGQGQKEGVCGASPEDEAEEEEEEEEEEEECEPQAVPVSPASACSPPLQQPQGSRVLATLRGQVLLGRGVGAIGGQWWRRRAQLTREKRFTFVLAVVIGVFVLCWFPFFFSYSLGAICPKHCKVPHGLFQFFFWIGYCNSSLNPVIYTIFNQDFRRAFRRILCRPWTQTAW
Also: assay procedure not described here.

SMILES | AC50 (Endothelin-1 receptor) [µM] | AC50 (Glucocorticoid receptor) [µM] | AC50 [1] [µM] | AC50 [2] [µM] | AC50 [3] [µM] | AC50 [4] [µM] | AC50 [5] [µM] | AC50 [6] [µM] | AC50 (Melanocortin receptor 3) [µM] | AC50 [7] [µM] | AC50 [8] [µM] | AC50 [9] [µM] | AC50 [10] [µM]
O=C(O)CCCCCCNC1c2ccccc2CCc2ccccc21 [AMINEPTINE] | > 30 | > 30 | > 30 | > 30 | > 30 | > 30 | > 30 | > 30 | > 30 | > 30 | > 30 | > 30 | > 30
COc1ccccc1OCCNCC(O)c1ccc(C)c(S(N)(=O)=O)c1 (stereo not given) [AMOSULALOL] | > 30 | > 30 | > 10 | > 30 | 0.1 | 7.7 | > 30 | > 30 | > 30 | > 30 | > 30 | > 30 | 6.9
COC(=O)C1=C(C)NC(C)=C(C(=O)OC2CCCN(Cc3ccccc3)C2)C1c1cccc([N+](=O)[O-])c1 (stereo not given) [BENIDIPINE] | > 30 | > 30 | 4.2 | 0.014 | > 30 | > 30 | 1.5 | > 30 | > 30 | > 30 | > 30 | > 30 | > 30
CC(=O)OCC(=O)[C@@]12N=C(C)O[C@@H]1C[C@H]1[C@@H]3CCC4=CC(=O)C=C[C@]4(C)[C@H]3[C@@H](O)C[C@@]12C [DEFLAZACORT] | > 30 | 0.66 | > 30 | > 30 | > 30 | > 30 | > 30 | > 30 | > 30 | > 30 | > 30 | > 30 | > 30
CCCCc1ncc(/C=C(\Cc2cccs2)C(=O)O)n1Cc1ccc(C(=O)O)cc1 [EPROSARTAN] | > 30 | > 30 | > 10 | > 10 | > 10 | > 30 | > 10 | > 10 | > 10 | > 10 | > 10 | 0.0019 | > 10
CCCCCCOc1ccccc1C(N)=O [EXALAMIDE] | > 30 | > 30 | > 30 | > 30 | > 30 | > 30 | 9.3 | 13 | > 30 | > 30 | > 30 | > 30 | > 30
COc1ccc(CCN(C)CCCC(C#N)(c2cc(OC)c(OC)c(OC)c2)C(C)C)cc1OC (stereo not given) [GALLOPAMIL] | > 30 | > 30 | > 30 |  | > 30 | 3.6 | 2.5 | > 30 | > 30 | > 30 | > 30 | > 30 | > 30
CCC(C(=O)O)c1ccc(N2Cc3ccccc3C2=O)cc1 (stereo not given) [INDOBUFEN] | > 30 | > 30 | > 30 | > 30 | > 30 | > 30 | > 30 | > 30 | > 30 | > 30 | > 30 | > 30 | > 30
CC(C(=O)O)c1ccc(N2Cc3ccccc3C2=O)cc1 (stereo not given) [INDOPROFEN] | > 30 | > 30 | > 30 | > 30 | > 30 | > 30 | > 30 | > 30 | > 30 | > 30 | > 30 | > 30 | > 30
CC(Oc1c(Cl)cccc1Cl)C1=NCCN1 (stereo not given) [LOFEXIDINE] | > 30 | > 30 | > 30 | > 30 | > 30 | > 30 | 22 |  | > 30 | > 30 | > 30 | > 30 | 0.74
COc1ccc2c3c1O[C@H]1C(=O)CC[C@@]4(O)[C@@H](C2)N(C)CC[C@]314 [OXYCODONE] | > 30 | > 30 | > 30 | > 30 | > 30 | > 30 |  | > 30 | > 30 | > 30 | > 30 | > 30 | > 30
O=C(O)/C=C/c1ccc(Cn2ccnc2)cc1 [OZAGREL] | > 30 | > 30 | > 30 | > 30 |  | > 30 | > 30 | > 30 | > 30 | > 30 | > 30 | > 30 | > 30
Cc1ccc(-n2nccn2)c(C(=O)N2CCN(c3nc4cc(Cl)ccc4o3)CC[C@H]2C)c1 [SUVOREXANT] | > 30 | > 30 | > 30 |  | > 30 | > 30 | > 30 | > 30 | > 30 | > 30 | > 30 | > 30 | 26
O=C(NCCNCC(O)COc1ccc(O)cc1)N1CCOCC1 (stereo not given) [XAMOTEROL] | > 30 | > 30 | > 30 |  |  | > 30 | > 30 | > 30 | > 30 | > 30 | > 30 | > 30 | > 30

Source: ChEMBL document CHEMBL5291721, “A preclinical secondary pharmacology resource illuminates target-adverse drug reaction associations of marketed drugs” (Nat Commun, 2023)
